Literature values as cited in patent publication US6514973B1, “Compositions for the treatment and prevention of neurological and pathopsychological diseases” (Merck Patent Geseilschaft Mit Beschrankter Haftung, priority 1998, dated 2003).

**Q.** Which “time until appearance in the blood after oral administration” value does the source give for Phosphatidylserines here?
**A.** The value was “about 30 minutes”.
